Values of other authors in PMC2970513 (Chemical biology & drug design, 2009).

Test system: μ receptor
Conditions: compared with the N-methylated cyclic peptides of this paper

## H-Tyr-D-Ala(NMe)-Phe-Sar-NH2
  μ receptor binding affinity, fold lower than those of the N-methylated cyclic peptides described here: 30-80 fold
